Here are results for 35 molecules from US9834558B2, “Substituted bridged urea analogs as sirtuin modulators” (GLAXOSMITHKLINE LLC, priority 2013, dated 2017).

This test addresses T1, SIRT1 (Homo sapiens, UniProt Q96EB6).
T1 sequence (Q96EB6 1-747): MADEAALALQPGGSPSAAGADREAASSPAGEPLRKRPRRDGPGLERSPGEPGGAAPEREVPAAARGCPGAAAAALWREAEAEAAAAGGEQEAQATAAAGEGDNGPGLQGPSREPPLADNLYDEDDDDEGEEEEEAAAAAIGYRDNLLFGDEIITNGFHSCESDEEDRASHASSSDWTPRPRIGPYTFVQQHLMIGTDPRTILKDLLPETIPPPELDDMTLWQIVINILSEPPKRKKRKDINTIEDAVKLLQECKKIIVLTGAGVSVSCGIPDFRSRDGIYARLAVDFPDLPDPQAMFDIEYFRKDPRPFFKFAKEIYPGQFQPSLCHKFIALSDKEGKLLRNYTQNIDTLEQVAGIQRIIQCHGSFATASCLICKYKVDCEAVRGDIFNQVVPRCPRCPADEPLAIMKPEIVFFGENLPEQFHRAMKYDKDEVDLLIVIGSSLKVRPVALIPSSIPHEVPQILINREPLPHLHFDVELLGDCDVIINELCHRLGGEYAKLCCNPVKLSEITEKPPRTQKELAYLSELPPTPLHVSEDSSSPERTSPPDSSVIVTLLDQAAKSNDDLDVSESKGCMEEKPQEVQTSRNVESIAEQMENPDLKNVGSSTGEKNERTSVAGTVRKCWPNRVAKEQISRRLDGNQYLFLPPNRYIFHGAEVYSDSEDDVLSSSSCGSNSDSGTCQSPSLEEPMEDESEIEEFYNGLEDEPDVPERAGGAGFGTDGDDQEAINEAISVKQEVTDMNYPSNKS
Nature of the test: Trp mass spectrometry assay of SIRT1 activation. The format is biochemical. The settings on record: for TRP Activity (EC1.5): EC1.5 = concentration that results in 150% activation of SIRT1. Summed up: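 N-terminal His-tagged human SIRT1 (10 nM, E. coli BL21(DE3)) with 0.5 μM Ac-RHKK(Ac)W-NH2 peptide and 120 μM βNAD+, 25 min at 25 °C in HEPES pH 7.5, formic acid stop. OAADPR or deacetylated peptide quantified by mass spectrometry; EC1.5 (50% activity increase over control) and Percent Maximum Activation reported.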

The mark [1] stands for this setting: Trp mass spectrometry assay, concentration of test compound giving 150% activation of SIRT1.
Setting [2] is: concentration giving 150% activation of SIRT1, Trp peptide substrate.
Where [3] appears, read: Trp mass spectrometry assay, EC1.5 = concentration of test compound that results in 150% activation of SIRT1.
Setting [4] is: Trp peptide assay, maximum activity relative to control (100%), read-out: TRP MAX RESP (percent maximum fold activation).
The mark [5] stands for this setting: Trp peptide substrate, concentration giving 150% activation of SIRT1.

Where a name gives a salt, the structure may show the parent alone. Read-outs that look alike come from different tables or passages of the source.

Consider `O=C(Nc1cc(O)ncn1)N1c2nc(N3CCCC(C(F)(F)F)C3)ccc2N2CCC[C@H]1C2` (stereo partly drawn) [Example 361], for which the “Tryp AVG EC1.5 (μM)” value under setting [1] was “A (A (EC1.5<1 μM))”. Regarding `O=C(Nc1ccccn1)N1c2nc(-c3cccc(Cl)c3)ccc2N2C[C@@H](O)[C@H]1C2` [Example 675], the “Tryp AVG EC1.5 (μM)” value under setting [2] is “B (B (EC1.5 1-25 μM))”. As for `Cc1ccc(-c2ccc3c(n2)N(C(=O)Nc2nc(C)c(C)s2)[C@H]2CCCN3C2)cn1` [Example 506], the “Tryp AVG EC1.5 (μM)” value under setting [3] is listed as “A (A (EC1.5<1 μM))”. In the case of `Cc1ccc(NC(=O)N2c3nc(-c4ccnc(C)c4)ccc3N3CC[C@H]2C3)cn1` [(9S)-N-(6-methylpyridin-3-yl)-5-(2-methylpyridin-4-yl)-1,6,8-triazatricyclo[7.2.1.0 {2,7}]dodeca-2(7),3,5-triene-8-carboxamide], the “TRP Activity (EC1.5)” value (Trp peptide assay) is “B (B (EC1.5 1-25 μM))”. The Emax under setting [4] was over 150%. In the case of `O=C(Nc1ccncn1)N1c2nc(N3CCCNCC3)ccc2N2CCC[C@H]1C2` [Example 420], the “Tryp AVG EC1.5 (μM)” value under setting [3] is “C (C (EC1.5>25 μM))”. On to `NCCCCCC(=O)NCc1cn(-c2cccc(NC(=O)N3c4nc(-c5cccc(C(F)(F)F)c5)ccc4N4CC[C@H]3C4)c2)nn1` [Example 639], for which, under setting [2], the “Tryp AVG EC1.5 (μM)” value was “A (A (EC1.5<1 μM))”. As to `Cc1cc(-c2ccc3c(n2)N(C(=O)Nc2ccncn2)[C@H]2CCN3C2)ccn1` [Example 468], under setting [3], the “Tryp AVG EC1.5 (μM)” value was “B (B (EC1.5 1-25 μM))”. In the case of `Cc1cc(-c2ccc3c(n2)N(C(=O)Nc2cnc(C4CC4)cn2)[C@H]2CCN3C2)ccn1` [(9S)-N-(5-cyclopropylpyrazin-2-yl)-5-(2-methylpyridin-4-yl)-1,6,8-triazatricyclo[7.2.1.0 {2,7}]dodeca-2(7),3,5-triene-8-carboxamide], under “Trp peptide assay”, the “TRP Activity (EC1.5)” value is given as “A (A (EC1.5<1 μM))”. Besides, the Emax under setting [4] is over 150%. In the case of `CC1CCN(c2ccc3c(n2)N(C(=O)Nc2cnccn2)[C@H]2CCN3C2)CC1` [(9S)-5-(4-methylpiperidin-1-yl)-N-(pyrazin-2-yl)-1,6,8-triazatricyclo[7.2.1.0 {2,7}]dodeca-2,4,6-triene-8-carboxamide], the “TRP Activity (EC1.5)” value (Trp peptide assay) was “B (B (EC1.5 1-25 μM))”. Also, the Emax under setting [4] was over 150%. For `Cc1cc(C)c(-c2ccc3c(n2)N(C(=O)Nc2cnccn2)[C@H]2CCN3C2)cn1` [(9S)-5-(4,6-dimethylpyridin-3-yl)-9-N-(pyrazin-2-yl)-1,6,8-triazatricyclo[7.2.1.0 {2,7}]dodeca-2(7),3,5-triene-8-carboxamide], the “TRP Activity (EC1.5)” value (Trp peptide assay) was “C (C (EC1.5>25 μM))”. Moreover, the Emax under setting [4] was under 150%. For `O=C(Nc1ccccn1)N1c2nc(-c3cncc(F)c3)ccc2N2CCC[C@H]1C2` [Example 470], the “Tryp AVG EC1.5 (μM)” value under setting [3] is on record as “A (A (EC1.5<1 μM))”. `COc1cc(NC(=O)N2c3nc(-c4cccc(CC(O)CO)c4)ccc3N3CC[C@H]2C3)ncn1` (stereo partly drawn) [Example 355]: under setting [1], the “Tryp AVG EC1.5 (μM)” value was “B (B (EC1.5 1-25 μM))”. With `O=C(Nc1ccccn1)N1c2nc(N3CCC[C@H](C(F)(F)F)C3)ccc2N2CCC[C@H]1C2` [drawing 1172, (9S)-N-(pyridin-2-yl)-5-[(3S)-3-(trifluoromethyl)piperidin-1-yl]-1,6,8-triazatricyclo[7.3.1.0 {2,7}]trideca-2(7),3,5-triene-8-carboxamide], the “TRP Activity (EC1.5)” value (Trp peptide assay) is on record as “B (B (EC1.5 1-25 μM))”. Besides, under setting [4], the Emax was over 150%.

`COc1cc(NC(=O)N2c3nc(-c4cccc(C(F)(F)F)n4)ccc3N3CC[C@H]2C3)ncn1` [Example 339]: the “Tryp AVG EC1.5 (μM)” value under setting [1] is recorded as “B (B (EC1.5 1-25 μM))”.

Consider `O=C(Nc1cc(F)ccn1)N1c2nc(-c3cccc(OC(F)(F)F)c3)ccc2N2CC[C@H]1C2` [Compound 174], for which, for the setting “Trp peptide substrate, percent maximum fold activation of SIRT1, read-out: Tryp % Fold Act”, the Emax is over 150%.

In the case of `O=C(Nc1ccccn1)N1c2nc(N3CC[C@H](C(F)(F)F)C3)ccc2N2CCC[C@H]1C2` [drawing 1225, (9S)-N-(pyridin-2-yl)-5-[(3S)-3-(trifluoromethyl)pyrrolidin-1-yl]-1,6,8-triazatricyclo[7.3.1.0 {2,7}]trideca-2(7),3,5-triene-8-carboxamide hydrochloride], where the note is “Trp peptide assay, hydrochloride”, the “TRP Activity (EC1.5)” value is reported as “A (A (EC1.5<1 μM))”. The Emax under setting [4] is over 150%. On to `COc1cc(NC(=O)N2c3nc(-c4cncc(Cl)c4)ccc3N3CCC2CC3)nc(OC)n1` [Example 553], for which the “Tryp AVG EC1.5 (μM)” value under setting [3] was “B (B (EC1.5 1-25 μM))”.

In the case of `O=C(Nc1cccc(-c2cnco2)c1)N1c2nc(-c3cccc(C(F)(F)F)c3)ccc2N2CCC1CC2` [Example 473], the “Tryp AVG EC1.5 (μM)” value under setting [3] was “A (A (EC1.5<1 μM))”. On to `Cc1cc(OCC(O)CO)nc(NC(=O)N2c3nc(-c4cccc(C(F)(F)F)c4)ccc3N3CC[C@H]2C3)n1` (stereo partly drawn) [Example 26], for which the “Tryp AVG EC1.5 (μM)” value under setting [5] is reported as “B (B (EC1.5 1-25 μM))”. Consider `Cn1ncc2cc(NC(=O)N3c4nc(-c5cccc(C(F)(F)F)c5)ccc4N4CC[C@H]3C4)ccc21` [Example 87], for which, under setting [5], the “Tryp AVG EC1.5 (μM)” value is “A (A (EC1.5<1 μM))”. Turning to `CC(C)(C)OC(=O)NCc1ccc(NC(=O)N2c3nc(-c4cccc(C(F)(F)F)c4)ccc3N3CCC[C@H]2C3)cc1` [Example 445], under setting [3], the “Tryp AVG EC1.5 (μM)” value is “A (A (EC1.5<1 μM))”. As for `O=C(Nc1cccc(-c2ccsc2)n1)N1c2nc(-c3cccc(C(F)(F)F)c3)ccc2N2CC[C@H]1C2` [Example 653], the “Tryp AVG EC1.5 (μM)” value under setting [2] is reported as “A (A (EC1.5<1 μM))”. Regarding `O=C(Nc1nnc(-c2ccncc2)s1)N1c2nc(-c3cccc(C(F)(F)F)c3)ccc2N2CC[C@H]1C2` [Example 733], under setting [2], the “Tryp AVG EC1.5 (μM)” value is “A (A (EC1.5<1 μM))”. Turning to `O=C(Nc1ccccn1)N1c2nc(-c3cccc(C(F)(F)F)n3)ccc2N2CC[C@H]1C2` [Example 336], the “Tryp AVG EC1.5 (μM)” value under setting [1] is listed as “B (B (EC1.5 1-25 μM))”. Regarding `O=C(Nc1nnc(-c2ccccc2)s1)N1c2nc(-c3cccc(C(F)(F)F)c3)ccc2N2CC[C@H]1C2` [Example 648], the “Tryp AVG EC1.5 (μM)” value under setting [2] is recorded as “A (A (EC1.5<1 μM))”. Same read-out and setting: next, `CS(=O)(=O)c1cccc(-c2ccc3c(n2)N(C(=O)Nc2cc(-c4cnco4)ccn2)[C@H]2CCN3C2)c1` [Example 723]: “A (A (EC1.5<1 μM))”. Regarding `O=C(Nc1cncnc1)N1c2nc(-c3ccnc(C(F)(F)F)c3)ccc2N2CCC[C@H]1C2` [(9S)-N-(pyrimidin-5-yl)-5-[2-(trifluoromethyl)pyridin-4-yl]-1,6,8-triazatricyclo[7.3.1.0 {2,7}]trideca-2(7),3,5-triene-8-carboxamide], for the setting “Trp peptide assay”, the “TRP Activity (EC1.5)” value is reported as “A (A (EC1.5<1 μM))”. The Emax under setting [4] is over 150%.

`Cc1cncc(NC(=O)N2c3nc(-c4cccc(C(F)(F)F)c4)ccc3N3C[C@@H](O)[C@H]2C3)c1` [Example 670]: the “Tryp AVG EC1.5 (μM)” value under setting [2] is on record as “A (A (EC1.5<1 μM))”.

With `O=C(CCCC[C@@H]1SCC2NC(=O)NC21)NCCCCCC(=O)NCc1ccc(NC(=O)N2c3nc(-c4cccc(C(F)(F)F)c4)ccc3N3CCC[C@H]2C3)cc1` (stereo partly drawn) [Example 430], the “Tryp AVG EC1.5 (μM)” value under setting [3] is listed as “A (A (EC1.5<1 μM))”. For the molecule `N#Cc1cc(-c2ccc3c(n2)N(C(=O)Nc2ccccn2)[C@H]2CCN3C2)ccc1F` [Example 341], the “Tryp AVG EC1.5 (μM)” value under setting [1] is “A (A (EC1.5<1 μM))”.

Take `O=C(Nc1cccnn1)N1c2nc(-c3cccnc3)ccc2N2CCC[C@H]1C2` [Example 457]: under setting [3], the “Tryp AVG EC1.5 (μM)” value is “B (B (EC1.5 1-25 μM))”. Also, the Emax (Trp mass spectrometry assay, percent maximum fold activation of SIRT1, read-out: Tryp % Fold Act) was over 150%. `O=C(Nc1ccccn1)N1c2nc(-c3ccc(-c4nnn[nH]4)cc3)ccc2N2CC[C@H]1C2` [Example 347]: the “Tryp AVG EC1.5 (μM)” value under setting [1] is recorded as “A (A (EC1.5<1 μM))”. Turning to `Cc1ccncc1-c1ccc2c(n1)N(C(=O)Nc1ccncn1)[C@H]1CCCN2C1` [Example 518], the “Tryp AVG EC1.5 (μM)” value under setting [3] is “C (C (EC1.5>25 μM))”.

As for `O=C(Nc1cnccn1)N1c2nc(N3CCC[C@H](C(F)(F)F)C3)ccc2N2CCC[C@H]1C2` [(9S)-N-(pyrazin-2-yl)-5-[(3S)-3-(trifluoromethyl)piperidin-1-yl]-1,6,8-triazatricyclo[7.3.1.0 {2,7}]trideca-2(7),3,5-triene-8-carboxamide], the “TRP Activity (EC1.5)” value (Trp peptide assay) is reported as “A (A (EC1.5<1 μM))”. Moreover, under setting [4], the Emax was over 150%.

`O=C(Nc1cncc(OC[C@@H](O)CO)n1)N1c2nc(-c3cccc(C(F)(F)F)c3)ccc2N2CC[C@H]1C2` [(9S)-N-{6-[(2S)-2,3-dihydroxypropoxy]pyrazin-2-yl}-5-[3-(trifluoromethyl)phenyl]-1,6,8-triazatricyclo[7.2.1.0 {2,7}]dodeca-2(7),3,5-triene-8-carboxamide]: the “TRP Activity (EC1.5)” value (Trp peptide assay) was “A (A (EC1.5<1 μM))”. For the same molecule, under setting [4], the Emax is over 150%.
